This is an account of results in patent publication US20260224596A1, “Phosphate Prodrugs of Cannabinoids” (Emory University, priority 2023, published 2026).

Structures are written as SMILES. Values after ≈ are worked out from the molar mass of the structure shown. Structures can show the parent of a compound that is named as a salt. A value given as a limit tells only on which side of the number the result lay.

Data set [1] can be described thus: Liver microsome stability assay (HLM). It counts as in vitro ADME. Conditions: human liver microsomes, 3 μM test compound, NADPH, 0-30 min, LC-MS/MS; for half-life at 3 μM: pH 7.4, read-out: T½ in HLM. How it is done:
As used herein, the “human liver microsomes stability, T1/2” is determined according to the procedure described in Example 9.
Human and mouse liver microsomes were purchased from Xenotech at 20 mg/mL. NADPH (Sigma-Aldrich) 10 mM stocks were prepared in deionized water.
Test compounds and positive controls were dissolved in 100% DMSO to make 10 mM stock solutions. Verapamil (Sigma-Aldrich) and diphenhydramine (Sigma-Aldrich) were used as positive controls for both human liver microsomes (HLM) and mouse liver microsomes (MLM). The 10 mM stock solutions of test and control compounds were further diluted in potassium phosphate buffer (100 mM, pH 7.4) to 500 μM to ensure that the organic solvent content was <0.2%. The liver microsome (HLM or MLM) assay was prepared in a 1.5 mL Eppendorf tube with a final volume of 1100 μL for duplicate runs. Each reaction contained phosphate buffer (928.4 μL), liver microsomes (55 μL), and test compound (6.6 μL of 500 μM), resulting in a final concentration of 3 μM for the test compound. The reaction was initiated with 110 μL of 10 mM NADPH. Aliquots (100 μL) were removed in duplicate at 0, 5, 10, 15, and 30 min and quenched in […] of 100% cold methanol which contained internal standard (ISTD: d5-7-ethoxy coumarin 2 μM). The aliquots were centrifuged at 12,000g for 5 min, and the supernatant was transferred and placed in an LC-MS vial. Each time point was assessed by LC-MS/MS, and the area under the m/z curve (AUC), based on the MRM transition, was integrated w.r.t the ISTD. Positive controls were conducted at a final volume of 550 μL to enable a single run for each time point. Negative controls in the absence of NADPH were performed with the test and control compounds, respectively, at a final volume of 150 μL and measured at the most prolonged time point. Control compounds were processed and analyzed like test compounds. Each time point was run in triplicates on LC-MS/MS followed by in-between blank washes to avoid the carryover and to equilibrate the column. Half-life (T1/2) was calculated using the data obtained from LC-MS/MS and by plotting ln (% remaining of the parent prodrug) versus time and performing linear regression to determine slope. Slope=−k and T1/2=0.693/k for first-order kinetics.

Data set [2] in a line: Nephelometry solubility in 1% DMSO. Format: physicochemical. Conditions: PBS pH 7.0-7.3 with 1% DMSO, 25° C.; for solubility at 90 min: Dulbecco's phosphate-buffered saline with 1% DMSO, aqueous buffer, kinetic from dmso stock. The procedure:
Nephelometry experiments were performed using untreated CORNING® COSTAR® 96-well black polystyrene plates with clear flat bottoms. Sample stock solutions and serial dilutions were prepared with DRISOLV® DMSO purchased from MilliporeSigma. […] Nephelometry data was obtained using a NEPHELOSTAR® microplate reader and processed with MARS data analysis software from BMG LabTech.
Tested compounds were dissolved in 100% DMSO to make stock solutions of specified concentrations, ranging from 10 mM minimum up to 50 mM maximum. The sample then underwent serial dilution in a 96-well plate (CORNING® COSTAR®). Well A1 of the plate contained 100% DMSO. […] Using a 12-channel multichannel pipette, 2.5 μL of sample from row A was transferred to each well in row B through row H of the plate. Next, 30 μL of PBS (pH=7.0-7.3) was added to row B through row H, providing each well with 32.5 μL. The plate was then incubated for 30 sec with shaking. Finally. 217.5 μL of PBS buffer was added to row B through row H, and the entire plate was incubated with shaking at 25° C. for 90 min. The final volume of DMSO in actual experiments with PBS buffer was 1% throughout the plate. After 90 min. the 96-well plate was analyzed with a NEPHELOSTAR® instrument and the data was processed with MARS data analysis software.

The nature of data set [3]: Plasma stability assay. As to conditions: for half-life at 3 μM: read-out: T½ in human plasma; for Δ^8-THC detected in plasma: release of parent Δ^8-THC in human plasma incubation. Format: in vitro ADME, human. The procedure: As used herein, the “human plasma stability, T1/2” is determined according to the procedure described in Example 10.
Procaine and Procainamide were purchased from Sigma-Aldrich. Human plasma was obtained from BioIVT (Cat. No. […]2N) and 1× Dulbecco's PBS (pH 7.4, Gibco) was obtained from Thermos Fischer. Stock solutions were prepared in 100% DMSO, and suitable dilutions of target analytes were prepared in methanol for method development.
Test compounds were dissolved in DMSO to make a stock solution of 10 mM and then diluted to 500 μM in buffer (or 70% MeOH). Human plasma was thawed at ambient temperature and is aliquoted (994.0 μL) to a 1.5 mL Eppendorf tube in duplicates (A and B) for each compound. Plasma was incubated at 37° C. for 10 minutes in an incubator shaker at 150 rpm; the reaction was initiated by the addition of the test compound (6.0 μL) and vortex mixing. The total reaction volume was 1000 μL where the final organic solvent concentrations were 0.6% MeOH and 0.03% DMSO. The spiked plasma samples were incubated at 37° C. for […]. The reactions were terminated at time points 0, 15, 30, 60, and 120 min by taking a 100 μL aliquot from the test incubation mixture and immediately quenching it in ice-cold mathanol containing internal standard (150 μL with 2 μM ISTD), followed by a quick vortex mixing. In addition, matrix blank was prepared by adding methanol solutions containing ISTD to plasma samples without any of the analytes or control compounds. Also, an additional tube was made to measure compound degradation in PBS buffer. The samples were centrifuged at 15,000 rpm for 25 min at 4° C. The supernatant was transferred to an LC-MS vial for analysis by LC/MS-MS. Each time point was run in duplicates followed by in-between blank washes to avoid the carryover and to equilibrate the column. Half-life (T1/2) was calculated using the data obtained from LC-MS/MS and by plotting ln (% remaining of the parent prodrug) versus time and performing linear regression to determine slope. Slope=−k and T1/2=0.693/k for first-order kinetics. Procaine (poor plasma stability) was used as a positive control at a final concentration of 3 μM. The positive control was run in parallel to test the systems for competency.
An exemplary experimental setup is described below. Conical polypropylene microcentrifuge tubes (1.5 mL) were labelled in duplicate for 0, 15, 30, 60, and 120 min for each compound being tested. • Example: No. of tubes prepared per Test Compound (TC): • Test compound: 994 μL human plasma+6.0 μL TC (Vial A) • 994 μL human plasma+6.0 μL TC (Vial B) • Positive control: 596 μL human plasma+3.6 μL (procaine) • Matrix blank: 500 μL PBS buffer+100 μL human plasma • Negative control: 142 μL PBS buffer+0.9 μL TC1 • Quenching mixture: 150 μL methanol with ISID (2 μM) • Final volume after quenching: 250 μL (100 μL from the incubation mixture and 150 μL from the quenching mixture; ISTD conc. 1.2 μM)

The mark [4] stands for this setting: human plasma, 37° C., time points 0-120 min, LC-MS/MS.

In the case of `CCCCCc1cc(OC(=O)NCCOP(=O)(O)O)c2c(c1)OC(C)(C)[C@@H]1CC=C(C)C[C@@H]21.N.N` [Compound 21a, (6aR,10aR)-6,6,9-trimethyl-3-pentyl-6a,7,10,10a-tetrahydro-6H-benzo[c]chromen-1-yl (2-(phosphonooxy)ethyl)carbamate di-ammonium salt], the half-life at 3 μM in data set [1] is 5.6 min. Further, the solubility at 90 min in data set [2] was greater than 500 µM.

On to `CCCCCc1cc(OC(=O)NCCCOP(=O)(O)O)c2c(c1)OC(C)(C)[C@@H]1CC=C(C)C[C@@H]21.N.N` [Compound 21b, (6aR,10aR)-6,6,9-trimethyl-3-pentyl-6a,7,10,10a-tetrahydro-6H-benzo[c]chromen-1-yl (3-(phosphonooxy)propyl)carbamate di-ammonium salt], for which the half-life at 3 μM is greater than 120 min in data set [3] (setting [4]) and 12.5 min in data set [1]. Besides, in data set [3], the “Δ^8-THC detected in plasma” value is recorded as “Yes”. Also, in data set [2], the solubility at 90 min was greater than 500 µM.

On to `CCCCCc1cc(OC(=O)OCCCCOP(=O)(O)O)c2c(c1)OC(C)(C)[C@@H]1CC=C(C)C[C@@H]21.N.N` [Compound 11b, 4-(phosphonooxy)butyl ((6aR,10aR)-6,6,9-trimethyl-3-pentyl-6a,7,10,10a-tetrahydro-6H-benzo[c]chromen-1-yl) carbonate di-ammonium salt], for which the half-life at 3 μM in data set [3] (setting [4]) is greater than 120 min; in data set [1], 17.2 min. Moreover, the “Δ^8-THC detected in plasma” value in data set [3] was “Yes”. For the same compound, the solubility at 90 min in data set [2] is greater than 500 µM.

For `CCCCCc1cc(OC(=O)CCCOP(=O)(O)O)c2c(c1)OC(C)(C)[C@@H]1CC=C(C)C[C@@H]21.N.N` [Compound 16a, (6aR,10aR)-6,6,9-trimethyl-3-pentyl-6a,7,10,10a-tetrahydro-6H-benzo[c]chromen-1-yl 4-(phosphonooxy)butanoate di-ammonium salt], the figures for the half-life at 3 μM in data set [3] (setting [4]) and in data set [1] were greater than 120 min and 51.3 min, respectively. Further, the “Δ^8-THC detected in plasma” value in data set [3] is listed as “Yes”. Moreover, the solubility at 90 min in data set [2] was greater than 500 µM.

As for `CCCCCc1cc(O)c2c(c1)OC(C)(C)[C@@H]1CC=C(C)C[C@@H]21` (relative stereo) [Δ^8-THC, (−)trans-Δ^8-THC, reference compound], the “T½ in human plasma” value in data set [3] (setting [4]) turned out to be 24 ± 6 h. The “T½ in HLM” value in data set [1] is on record as 5.51 min. For the same compound, the “Solubility in 1% DMSO” value in data set [2] (90 min) was 15.93 ± 0.8 µM (≈ 5.01 µg/mL).

Take `CCCCCc1cc(OC(=O)OCCCOP(=O)(O)O)c2c(c1)OC(C)(C)[C@@H]1CC=C(C)C[C@@H]21` [Compound 11a, 3-(phosphonooxy)propyl ((6aR,10aR)-6,6,9-trimethyl-3-pentyl-6a,7,10,10a-tetrahydro-6H-benzo[c]chromen-1-yl) carbonate di-ammonium salt]: the half-life at 3 μM in data set [1] was determined as 18.8 min.

For the compound `CCCCCc1cc(OC(=O)CCCCOP(=O)(O)O)c2c(c1)OC(C)(C)[C@@H]1CC=C(C)C[C@@H]21.N.N` [Compound 16b, (6aR,10aR)-6,6,9-trimethyl-3-pentyl-6a,7,10,10a-tetrahydro-6H-benzo[c]chromen-1-yl 5-(phosphonooxy)pentanoate di-ammonium salt], the half-life at 3 μM in data set [1] was 40.1 min. In data set [2], this compound returned a solubility at 90 min greater than 500 µM.
